Reference: US4320051A, “Analgesic tripeptide amides” (American Home Products Corporation, priority 1980, dated 1982)
Values joined by “and” are separate entries in the source; they are usually repeats but may differ in a detail not shown here. Equal values may be shown once. Square brackets hold non-standard residues; d marks the D form. Ends that are not written are not given here.

Columns and labels:
[1] = test system: phenylbenzoquinone-induced writhing; assay: phenylbenzoquinone-induced writhing test; assay type: in vivo; conditions: subcutaneous, mice
Protocol: Exp. Biol. Med., 95, 729-731 (1957), by establishing three groups of ten mice (Carworth farms) per group (18-27 g. body weight). The animals receive the compound being tested (Examples 9 and 15) subsubcutaneously. Five or 20 minutes later each animal received 0.25 milliliters of the writhing agonist (i.e. 0.02% solution of PBQ). The animals receiving the writhing agonist five minutes after the test compound are observed for a period of ten minutes beginning five minutes after the injection. The animals receiving the writhing agonist 20 minutes after the test compound are observed for ten minutes beginning five minutes after the injection. A compound is an analgesic if it inhibits writhing induced by phenyl benzoquinone.

[2] = test system: opiate receptor (3H-naloxone binding); assay: 3H-naloxone displacement (procedure of Chang et al.); design: 3H-naloxone displacement ED50: unit not given here
Description: Enkephalin, a natural opiate receptor agonist in the brain, has been identified [see Hughes et al., Nature, 258,577 (1975)] as a mixture of two pentapeptides: H-Tyr-Gly-Gly-Phe-Met-OH (methionine-enkephalin) and H-Tyr-Gly-Gly-Phe-Leu-OH (leucine-enkephalin). […] It has been reported that methionine-enkephalin and leucine-enkephalin, when administered by injection in the brain ventricle in rats, induce a profound analgesia that is fully reversible by naloxone. [See Beluzzi et al., Nature, 260, 625 (1976)].

[3] = intravenous administration, relative to morphine; cited from earlier work

Molecule | ED50 mg/kg. (confidence limits) ([1]; Time 15 minutes) | ED50 mg/kg. (confidence limits) ([1]; Time 30 minutes) | 3H-naloxone displacement ED50 [2] | relative displacement potency ([2]; 3H-naloxone displacement, morphine=1) | times more potent than morphine [3] [times]
C[C@@H](NC(=O)[C@@H](N)Cc1ccc(O)cc1)C(=O)NCC(=O)NC(Cc1ccccc1)CN1CCN(C)CC1 (stereo partly drawn) [Example 9, L-Tyrosyl-D-alanyl-N-[1-[(4-methyl-1-piperazinyl)methyl]-2-phenyl-ethyl]glycinamide] | 1.05 (0.62-1.79) mg/kg | 4.60 (3.1-6.9) mg/kg and 6.20 (4.4-8.7) mg/kg | 1.36×10^-7 | 1.3 | –
Y[dM]GFP-NH2 | – | – | – | – | 5.5
